Here are results for 3 compounds from article PMC7767381, “Exploring the Anti-Cancer Mechanism of Novel 3,4′-Substituted Diaryl Guanidinium Derivatives” (Pharmaceuticals, 2020).

Test [1] has as its system HeLa cells. The experiment in a line: alamarBlue cell viability assay, HeLa. The conditions noted are these: Homo sapiens, 72 h, read-out: HeLa IC50 ± SEM. The test is classed as cell-based. An excerpt: Cell viability and proliferation assays were used to evaluate the in vitro cytotoxicity of all synthesised compounds in a variety of different cancer cell lines using the alamarBlue® viability assay and the results are presented in Table 1 and Table 2. The sensitivity of cancer cells to drugs can often be compromised by PIK3CA, Ras and BRAF mutations. To determine whether such mutations are critical to the efficacy of our new compounds we tested them in a range of cancerous cell lines expressing different mutations. Firstly, we used the HL-60 (human promyelocytic leukaemia, NRas mutated) cell line for general cytotoxicity screening of all compounds. […] Lastly, toxicity against MCF-10A, which is a non-tumorigenic epithelial cell line, was also assessed for one of the most promising compounds (4). The graphs representing the viability results with the HL-60, MCF-7, HeLa, HCT-116, and HKH-2 cancer cell lines for compound 1 and derivatives 2, 3, and 4 are shown in Figures S7–S10 (ESI).
Cells were counted and seeded in 96-well plates at a density of 2 × 10^5 cells/mL for HL-60, 2.5 × 10^4 cells/mL for MCF-7, MCF10A and HeLa, 1 × 10^5 cells/mL for HCT116 and HKH-2, all of them in their respective media. The 96-well plates were then treated with a 1:100 dilution of stock concentrations of drugs or EtOH (1% v/v)/DMSO (0.1% v/v) as vehicle control in triplicate. Three blank wells containing 200 µL RPMI with no cells were also set-up as blanks. After a 72 h incubation, 20 µL of alamarBlue was added to each well. The plates were incubated in darkness at 37 °C for 4–5 h using a Molecular Devices microplate reader, the fluorescence (F) was then read at an excitation wavelength of 544 nm and an emission wavelength of 590 nm. Cell viability was then determined by subtracting the mean blank fluorescence (Fb) from the treated sample fluorescence (Fs) and expressing this as a percentage of the fluorescence of the blanked vehicle control (Fc). […] The results were then plotted as a nonlinear regression, sigmoidal dose-response curves on Prism, from which the IC50 value for each drug was determined.
The MCF-7 (human breast tumour) cell line was obtained from Prof. Mary Meegan, School of Pharmacy, TCD. It was maintained in Roswell Park Memorial Institute (RPMI) 1640 medium with stable glutamate (GlutaMax I) supplemented with 10% (v/v) fetal bovine serum (FBS), 1% (v/v) penicillin/ streptomycin (pen-strep) and 2 mM L-glutamine.
The HeLa (human epitheloid cervix carcinoma) cell line was obtained from Prof. Thorfinnur Gunnlaugsson, School of Chemistry TCD. It was maintainedin Dulbecco's Modified Eagle's Medium (DMEM) supplemented with 10% (v/v) fetal bovine serum (FBS) and 1%(v/v) penicillin/ streptomycin (pen-strep).
The HCT116and HKH-2 (human colon cancer cells) cell lines were obtained from Prof. James Murray, School of Biochemistry and Immunology TCD. They were maintainedin Dulbecco's Modified Eagle's Medium (DMEM) supplemented with 10% (v/v) fetal bovine serum (FBS), 1% (v/v) penicillin/ streptomycin (pen-strep), 1% (v/v) sodium pyruvate (NaPyr), 1% (v/v) L-glutamine (L-Glu) and, only for HKH-2, 0.6 mg/mL geneticine (G418).
MCF-10A (human breast epithelial) cell line was obtained from Prof. Mary Meegan, School of Pharmacy, TCD. […]
Cells were counted and seeded in 96 well plates at a density of 2 × 10^5 cells/mL for HL-60, 2.5× 10^4 cells/mL for MCF-7, MCF10A and HeLa, 1 × 10^5 cells/mL for HCT116 and HKH-2, all of them in their respective media. […]

The test system of test [2] is ERK phosphorylation (MAPK/ERK pathway). The test can be described thus: Western immunoblot of ERK phosphorylation in HL-60 extracts. The conditions noted are these: HL-60, 5 µM, 16 h. It is filed as cell-based, human. Here is the method:
Thus, using Western immunoblot analysis of HL-60 extracts, we investigated the expression and phosphorylation levels of ERK (as an indication of ERK activation), which is the downstream effector of the Ras/BRAF signalling pathway (Figure 6).
HL60s were seeded in T25 flasks at 50 × 10^4 cells/mL and cells were treated with either vehicle [0.5% EtOH (v/v)], 1–4, 9 or 52 (5 µM), as well as 1 (10 µM as reported). After 16 h, cells were collected and washed with PBS. Cell pellets were re-suspended in cold cell lysis buffer (radio-immunoprecipitation assay buffer) supplemented with 1% phosphatase inhibitor cocktail 2 and 3 (Sigma) and 10% protease inhibitor (Roche). Cells were lysed for 30 min on ice. Protein concentration was then determined by BCA assay. Lysates were boiled with Laemmli sample buffer [Tris-HCL 50 mM (pH 6.7), glycerol 10% (w/v), sodium dodecyl sulphate 2% (w/v), bromophenol blue 0.02% (w/v)] containing DTT […] for 10 min at 90 °C. Moreover, 20 µg of lysates were resolved by sodium dodecyl sulphate polyacrylamide gel electrophoresis (SDS-PAGE) and transferred onto PVDF transfer membrane (EMD Millipore). Membranes were blocked with 5% non-fat milk and probed with primary antibodies for ERK and phospho-ERK (Cell Signalling). Anti-GAPDH was used as a loading control (Calbiochem).
Figure 6 Western immunoblot of HL-60 cell extracts following incubation with compounds 2, 3, 4, 9, 52 and 1 (as a control). HL60 cells were seeded at 2 × 10^5 cells/mL and were treated with either vehicle [0.5% EtOH (v/v)], compounds 52, 2, 9, 3 and 4 (5 µM) or compound 1 (5 and (*) 10 µM, as in reference) for 16 h. Cells were lysed and equal amounts of protein were loaded and separated on 15% SDS-PAGE gels, transferred to PVDF membrane and probed with antibodies against total and phosphorylated ERK. Anti-GAPDH was used as a loading control. Results are representative of 2 independent experiments.
HL-60 cells were seeded in T25 flasks at 50 x10^4 cells/mL and treated with either vehicle [0.5% […]
After 16 hours, cells were […]
collected and washed with PBS. Cell pellets were re-suspended in cold cell lysis buffer (radio-immunoprecipitation assay buffer) supplemented with 1% phosphatase inhibitor cocktail 2 and 3 (Sigma) and 10% protease inhibitor (Roche). Cells were lysed for 30 minutes on ice.
Protein concentration was then determined by BCA assay. Lysates were boiled with laemmli sample buffer [Tris-HCL 50 mM (pH 6.7), glycerol 10% (w/v), sodium dodecyl sulphate 2% (w/v), bromophenol blue 0.02% (w/v)] containing DTT […] for 10 min. at 90 °C. Also 20 µg of lysates were resolved by sodium dodecyl sulphate polyacrylamide gel electrophoresis (SDS - PAGE) and transferred onto PVDF transfer membrane (EMD Millipore). Membranes were blocked with 5% non-fat milk and probed with primary antibodies for ERK and phospho-ERK (Cell Signaling). Anti-GAPDH was used as a loading control (Calbiochem).

SMILES strings stand for the structures. Entries after “also recorded” stand apart in the source; their conditions may differ.

As usually defined, the IC50 is the concentration that gives 50% inhibition. For the compound `Cl.Cl.N=C(N)Nc1ccc(Oc2cccc(NC(=N)Nc3ccc(Cl)c(C(F)(F)F)c3)c2)cn1` [Compound 2, 1-(4-Chloro-3-(trifluoromethyl)phenyl)-3-(3-((6-guanidinopyridin-3-yl)oxy)phenyl) guanidine dihydrochloride], in test [1], the IC50 turned out to be 4.87 ± 0.27 µM. In addition, the “effect on ERK phosphorylation (Ras/BRAF pathway)” value (from here on “effect … (Ras/BRAF pathway)”) in test [2] was “inhibiting ERK phosphorylation; also recorded: abrogates ERK activation”.

As to `Cl.N=C(N)Nc1ccc(Oc2cccc(Nc3ccc(Cl)c(C(F)(F)F)c3)c2)cn1` [Compound 4, 1-(5-(3-((4-Chloro-3-(trifluoromethyl)phenyl)amino)phenoxy)pyridin-2-yl)guanidine hydrochloride], in test [1], the IC50 was found to be 1.33 ± 0.08 µM. In test [2], the “effect … (Ras/BRAF pathway)” value was “do not appear to interfere with the Ras/BRAF signalling pathway; also recorded: do not act in the same way”.

Consider `Cl.N=C(N)Nc1ccc(Oc2cccc(Nc3ccc(Cl)c(C(F)(F)F)c3)c2)cc1` [Compound 3, 1-(4-(3-((4-Chloro-3-(trifluoromethyl)phenyl)amino)phenoxy)phenyl)guanidine hydrochloride], for which the half-inhibitory concentration (IC50) in test [1] was determined as 4.33 ± 0.54 µM. Besides, in test [2], the “effect … (Ras/BRAF pathway)” value was “do not appear to interfere with the Ras/BRAF signalling pathway; also recorded: do not act in the same way”.
